The values below are quoted from earlier work in US11981760B2, “Therapeutic hydrogels and contact lens for corneal melting” (THE REGENTS OF THE UNIVERSITY OF COLORADO, priority 2018, dated 2024).

As usually defined, the Kd is the equilibrium constant for the complex coming apart.

For `c1ccc(CNCc2ccccn2)nc1` [DPA, dipicolylamine], the “association with other metal ions” value (Ca^2+, Mg^2+, Na^+ and K^+) is on record as “does not associate strongly”. Besides, under “five-membered chelate ring, read-out: Kd of Zn^2+ complexation”, the Kd is approximately 0.01 nM.
